# According to paper PMC8053501 (Diabetes, Metabolic Syndrome and Obesity: Targets and …, 2021):
# Entries after “also recorded” stand apart in the source; their conditions may differ. Where two headings read alike, the source gives them in different places.
# Tests used:
# [1] = tested on: diabetes mellitus patients; experiment: Acute kidney injury; assay type: in vivo, human; conditions: for Association with AKI, Unadjusted (95% CI) / Association with AKI, Adjusted (95% CI): metformin as reference; for Association with AKI, Adjusted (95% CI): multivariate; for Events During the 90 days (AKI): primary endpoint, first 90 days, patients above 55 years; for Total endpoint (AKI events): primary plus secondary endpoint; for Events at secondary end (AKI): secondary endpoint, after 90 days of hospital admission; for Total Percent (incidence rate of AKI at the end of the study): share of the 4966 total outcomes; for Association with AKI compared to control drug metformin, in words: multivariate analysis
# [2] = for Cmax / Tmax / t1/2 / AUC / Tmax determined from the drug concentration in kidney and plasma (and liver): mouse; for Cmax / Tmax / t1/2 / AUC / Drug concentration, time course: oral gavage, 3mg/kg; for AUC: AUC for 24 hr; for Tmax determined from the drug concentration in kidney and plasma (and liver): tissue not separated; for Drug concentration, time course: normal mice
# in vivo = conditions: male, ICR, mouse, po
# [3] = Endpoint Diagnosis with 1047 Outcome
# [4] = Secondary Diagnosis with 3919 Outcomes
molecule,measurement,setting,value
"Cc1ccc([C@@H]2O[C@H](CO)[C@@H](O)[C@H](O)[C@H]2O)cc1Cc1ccc(-c2ccc(F)cc2)s1 [Canagliflozin, canagliflozin]","Association with AKI, Unadjusted (95% CI)",[1]; [3],0.85 (0.67–1.21)
same,"Association with AKI, Adjusted (95% CI)",[1]; [3],1.06 (0.68–1.34)
same,"Association with AKI, Unadjusted (95% CI)",[1]; [4],0.89 (0.61–1.25)
same,"Association with AKI, Adjusted (95% CI)",[1]; [4],1.06 (0.91–1.42)
same,Events During the 90 days (AKI),[1],66
same,Total endpoint (AKI events),[1],267
same,Events at secondary end (AKI),[1],201
same,Total Percent (incidence rate of AKI at the end of the study),[1],5.38%
same,Cmax,[2]; Kidney,3765 ng/mL
same,Tmax,[2]; Kidney,1 h
same,t1/2,[2]; Kidney,2.4 h
same,AUC,[2]; Kidney,"12,100 ng/mL"
same,Cmax,[2]; Liver,3217 ng/mL
same,Tmax,[2]; Liver,1 h
same,t1/2,[2]; Liver,2.8 h
same,AUC,[2]; Liver,"10,100 ng/mL"
same,Cmax,[2]; Plasma,542 ng/mL
same,Tmax,[2]; Plasma,1 h
same,t1/2,[2]; Plasma,2.1 h
same,AUC,[2]; Plasma,1432 ng/mL
same,Tmax determined from the drug concentration in kidney and plasma (and liver),[2],1 h
same,"Drug concentration, time course","[2]; Kidney, 0h",0
same,"Drug concentration, time course","[2]; Kidney, 3h",5000
same,"Drug concentration, time course","[2]; Kidney, 6h",4300
same,"Drug concentration, time course","[2]; Kidney, 9h",900
same,"Drug concentration, time course","[2]; Kidney, 12h",300
same,"Drug concentration, time course","[2]; Kidney, 15h",0
same,"Drug concentration, time course","[2]; Kidney, 18h",0
same,"Drug concentration, time course","[2]; Kidney, 21h",0
same,"Drug concentration, time course","[2]; Kidney, 24h",0
same,"Drug concentration, time course","[2]; Liver, 0h",0
same,"Drug concentration, time course","[2]; Liver, 3h",4700
same,"Drug concentration, time course","[2]; Liver, 6h",3900
same,"Drug concentration, time course","[2]; Liver, 9h",600
same,"Drug concentration, time course","[2]; Liver, 12h",100
same,"Drug concentration, time course","[2]; Liver, 15h",0
same,"Drug concentration, time course","[2]; Liver, 18h",0
same,"Drug concentration, time course","[2]; Liver, 21h",0
same,"Drug concentration, time course","[2]; Liver, 24h",0
same,"Drug concentration, time course","[2]; Plasma, 0h",0
same,"Drug concentration, time course","[2]; Plasma, 3h",500
same,"Drug concentration, time course","[2]; Plasma, 6h",300
same,"Drug concentration, time course","[2]; Plasma, 9h",50
same,"Drug concentration, time course","[2]; Plasma, 12h",0
same,"Drug concentration, time course","[2]; Plasma, 15h",0
same,"Drug concentration, time course","[2]; Plasma, 18h",0
same,"Drug concentration, time course","[2]; Plasma, 21h",0
same,"Drug concentration, time course","[2]; Plasma, 24h",0
"CC1=C(C(=O)O)N2C(=O)[C@@H](NC(=O)[C@H](N)c3ccccc3)[C@H]2SC1 [Cephalexin, cephalexin]","Association with AKI, Adjusted (95% CI)",[1]; [3],1.52 (1.31–2.16)
same,"Association with AKI, Adjusted (95% CI)",[1]; [4],1.82 (1.31–2.25)
same,"Association with AKI compared to control drug metformin, in words",[1],increased rate of AKI; also recorded: higher risk for AKI
same,Events During the 90 days (AKI),[1],50
same,Total endpoint (AKI events),[1],333
same,Events at secondary end (AKI),[1],283
same,Total Percent (incidence rate of AKI at the end of the study),[1],6.71%
same,"Drug concentration, time course","[2]; Kidney, 0h",0
same,"Drug concentration, time course","[2]; Kidney, 3h",8130
same,"Drug concentration, time course","[2]; Kidney, 6h",5630
same,"Drug concentration, time course","[2]; Kidney, 9h",2390
same,"Drug concentration, time course","[2]; Kidney, 12h",450
same,"Drug concentration, time course","[2]; Kidney, 15h",30
same,"Drug concentration, time course","[2]; Kidney, 18h",0
same,"Drug concentration, time course","[2]; Kidney, 21h",0
same,"Drug concentration, time course","[2]; Kidney, 24h",0
same,"Drug concentration, time course","[2]; Liver, 0h",0
same,"Drug concentration, time course","[2]; Liver, 6h",7460
same,"Drug concentration, time course","[2]; Liver, 9h",4550
same,"Drug concentration, time course","[2]; Liver, 12h",1650
same,"Drug concentration, time course","[2]; Liver, 15h",340
same,"Drug concentration, time course","[2]; Liver, 18h",80
same,"Drug concentration, time course","[2]; Liver, 21h",0
same,"Drug concentration, time course","[2]; Liver, 24h",0
same,"Drug concentration, time course","[2]; Plasma, 0h",0
same,"Drug concentration, time course","[2]; Plasma, 3h",360
same,"Drug concentration, time course","[2]; Plasma, 6h",70
same,"Drug concentration, time course","[2]; Plasma, 9h",30
same,"Drug concentration, time course","[2]; Plasma, 12h",0
same,"Drug concentration, time course","[2]; Plasma, 15h",0
same,"Drug concentration, time course","[2]; Plasma, 18h",0
same,"Drug concentration, time course","[2]; Plasma, 21h",0
same,"Drug concentration, time course","[2]; Plasma, 24h",0
"CCOc1ccc(Cc2cc([C@@H]3O[C@H](CO)[C@@H](O)[C@H](O)[C@H]3O)ccc2Cl)cc1 [Dapagliflozin, dapagliflozin]","Association with AKI, Unadjusted (95% CI)",[1]; [3],0.94 (0.71–1.25)
same,"Association with AKI, Adjusted (95% CI)",[1]; [3],0.84 (0.72–1.32)
same,"Association with AKI, Unadjusted (95% CI)",[1]; [4],0.81 (0.63–1.33)
same,"Association with AKI, Adjusted (95% CI)",[1]; [4],0.93 (0.58–1.24)
same,Events During the 90 days (AKI),[1],73
same,Total endpoint (AKI events),[1],298
same,Events at secondary end (AKI),[1],225
same,Total Percent (incidence rate of AKI at the end of the study),[1],6%
same,Total Percent (incidence rate of AKI at the end of the study),[1]; listed as dapagliflozin,6.0%
same,Tmax,in vivo,1 h
same,Tmax,in vivo; 3 mg/kg,1 h
same,half-life,"in vivo; 3 mg/kg, t1/2",2.8 h
"CN(C)C(=N)N=C(N)N [Metformin, metformin]","Association with AKI, Unadjusted (95% CI)",[1]; [3],1
same,"Association with AKI, Adjusted (95% CI)",[1]; [3],1
same,"Association with AKI, Unadjusted (95% CI)",[1]; [4],1.0 (Reference)
same,"Association with AKI, Adjusted (95% CI)",[1]; [4],1.0 (Reference)
same,Events During the 90 days (AKI),[1],69
same,Total endpoint (AKI events),[1],330
same,Events at secondary end (AKI),[1],261
same,Total Percent (incidence rate of AKI at the end of the study),[1],6.64%
same,Tmax,in vivo,0.5 h
same,Tmax,in vivo; 3 mg/kg,0.5 h
insulin,"Association with AKI, Unadjusted (95% CI)",[1]; [3],2.26 (1.95–2.64)
same,"Association with AKI, Adjusted (95% CI)",[1]; [3],2.36 (1.81–2.87)
same,"Association with AKI, Unadjusted (95% CI)",[1]; [4],2.42 (1.25–2.61)
same,"Association with AKI, Adjusted (95% CI)",[1]; [4],2.73 (2.28–2.90)
same,"Association with AKI compared to control drug metformin, in words",[1],increased rate of AKI; also recorded: higher risk for AKI
same,Total endpoint (AKI events),[1],348
same,Events at secondary end (AKI),[1],290
same,Cmax,[2]; Kidney,6574 ng/mL
same,Tmax,[2]; Kidney,1 h
same,AUC,[2]; Kidney,"26,742 ng/mL"
same,Cmax,[2]; Liver,6087 ng/mL
same,Tmax,[2]; Liver,1 h
same,AUC,[2]; Liver,"19,851 ng/mL"
same,Cmax,[2]; Plasma,879 ng/mL
same,Tmax,[2]; Plasma,1 h
same,AUC,[2]; Plasma,2985 ng/mL
same,Tmax determined from the drug concentration in kidney and plasma (and liver),[2],1 h
same,"Drug concentration, time course","[2]; Kidney, 0h",0
same,"Drug concentration, time course","[2]; Kidney, 3h","14,200"
same,"Drug concentration, time course","[2]; Kidney, 6h","10,400"
same,"Drug concentration, time course","[2]; Kidney, 9h",6400
same,"Drug concentration, time course","[2]; Kidney, 12h",3700
same,"Drug concentration, time course","[2]; Kidney, 15h",500
same,"Drug concentration, time course","[2]; Kidney, 18h",0
same,"Drug concentration, time course","[2]; Kidney, 21h",0
same,"Drug concentration, time course","[2]; Kidney, 24h",0
same,"Drug concentration, time course","[2]; Liver, 0h",0
same,"Drug concentration, time course","[2]; Liver, 3h",9400
same,"Drug concentration, time course","[2]; Liver, 6h",5050
same,"Drug concentration, time course","[2]; Liver, 9h",2380
same,"Drug concentration, time course","[2]; Liver, 12h",370
same,"Drug concentration, time course","[2]; Liver, 15h",0
same,"Drug concentration, time course","[2]; Liver, 18h",0
same,"Drug concentration, time course","[2]; Liver, 21h",0
same,"Drug concentration, time course","[2]; Liver, 24h",0
same,"Drug concentration, time course","[2]; Plasma, 0h",0
same,"Drug concentration, time course","[2]; Plasma, 3h",640
same,"Drug concentration, time course","[2]; Plasma, 6h",450
same,"Drug concentration, time course","[2]; Plasma, 9h",310
same,"Drug concentration, time course","[2]; Plasma, 12h",50
same,"Drug concentration, time course","[2]; Plasma, 15h",0
same,"Drug concentration, time course","[2]; Plasma, 18h",0
same,"Drug concentration, time course","[2]; Plasma, 21h",0
same,"Drug concentration, time course","[2]; Plasma, 24h",0
